Test results: patent US10548861B2 (Academia Sinica, priority 2015, dated 2020)
Like-named read-outs stand apart in the source and are kept apart here.

Experiments:
Mino = assay: Drug combination cytotoxicity with BO-1055; type: cell-based, human; conditions: for IC50: Homo sapiens, MINO, read-out: IC50 single drug
FTE-hTERT = assay: 72 hr cytotoxicity: Fallopian epithelium; type: cell-based; conditions: Homo sapiens
HUVEC = assay: 72 hr cytotoxicity: Umbilical endothelium; type: cell-based; conditions: Homo sapiens
BMMSC = assay: 72 hr cytotoxicity: BM Mesenchyme; type: cell-based; conditions: Homo sapiens, 72 hr, read-out: IC50
[1] = system: A673 Ewing's sarcoma cell line; assay: Combination cytotoxicity (Alamar blue, Compusyn CI); type: cell-based, human; conditions: A673, simultaneous, lattice format
REC-1 = assay: Drug combination cytotoxicity with BO-1055; type: cell-based, human
HBL2 = assay: Drug combination cytotoxicity with BO-1055; type: cell-based; conditions: Homo sapiens, read-out: IC50 single drug
BCI-NSI hTERT = assay: 72 hr cytotoxicity: Bronchial epithelium; type: cell-based; conditions: Homo sapiens
JEKO-1 = assay: Drug combination cytotoxicity with BO-1055; type: cell-based; conditions: Homo sapiens, read-out: IC50 single drug
[2] = system: normal cord blood CD34+ cells; assay: Cytotoxicity on normal cord blood CD34+ cells; type: cell-based; conditions: Homo sapiens
Granta = assay: Drug combination cytotoxicity with BO-1055; type: cell-based, human; conditions: for IC50: Homo sapiens, read-out: IC50 single drug
Z-138 = assay: Drug combination cytotoxicity with BO-1055; type: cell-based, human; conditions: for IC50: Homo sapiens, read-out: IC50 single drug
NECB1 = assay: Drug combination cytotoxicity with BO-1055; type: cell-based, human; conditions: for IC50: Homo sapiens, read-out: IC50 single drug
[3] = system: Ewing's sarcoma primary patient tumor; assay: Cyclophosphamide-resistant primary Ewing's sarcoma xenograft; type: in vivo, NSG mice; conditions: cyclophosphamide 70 mg/kg i.p. x3, then BO-1055 30 mg/kg iv x4
IMR90 = assay: 72 hr cytotoxicity: fetal lung myofibroblast; type: cell-based; conditions: Homo sapiens
[4] = system: Ewing's sarcoma cell lines; assay: Cytotoxicity on sarcoma panel; type: cell-based; conditions: Homo sapiens; read-out: IC50 range
JURKAT = assay: Cytotoxicity: T-ALL; type: cell-based; conditions: Homo sapiens, read-out: IC50
MOLT-4 = assay: Cytotoxicity: T-ALL; type: cell-based; conditions: Homo sapiens, read-out: IC50
CHLA-9 = assay: Cytotoxicity: Ewing's sarcoma; conditions: Homo sapiens, read-out: cytotoxic activity (IC50)
HS578 = assay: 72 hr cytotoxicity: Breast epithelium; type: cell-based; conditions: Homo sapiens
CCRF-CEM = assay: Cytotoxicity: T-cell leukemia; type: cell-based; conditions: Homo sapiens, read-out: IC50
HL-60 = assay: Cytotoxicity: AML line; type: cell-based; conditions: Homo sapiens, read-out: IC50
Kasumi-1 AML-ETO = assay: Cytotoxicity: AML line; type: cell-based; conditions: Homo sapiens; Kasumi-1; read-out: IC50
MS-5 (mouse) = assay: 72 hr cytotoxicity: Adult BM stroma; type: cell-based; conditions: MS-5 murine stroma
COG-LL-317 = assay: Cytotoxicity: T-ALL; type: cell-based; conditions: Homo sapiens; COG-LL-317; read-out: IC50
RH30 = assay: Cytotoxicity: Rhabdomyosarcoma (Alveolar type); conditions: Homo sapiens, Rh30
CCRF-CEM/Taxol = assay: Cytotoxicity: Paclitaxel-resistant subline; type: cell-based; conditions: Homo sapiens; CCRF-CEM/Taxol; read-out: IC50
H23 = assay: cells; type: cell-based; conditions: Homo sapiens, NCI-H23; read-out: IC50
H678 = assay: 72 hr cytotoxicity: SCLC classic; type: cell-based; conditions: Homo sapiens; H678; read-out: IC50
H146 = assay: 72 hr cytotoxicity: SCLC classic; type: cell-based; conditions: Homo sapiens, NCI-H146; read-out: IC50
H226 = assay: cells; type: cell-based; conditions: Homo sapiens, NCI-H226; read-out: IC50
H128 = assay: 72 hr cytotoxicity: SCLC classic; type: cell-based; conditions: Homo sapiens, NCI-H128; read-out: IC50
H125 = assay: cells; type: cell-based; conditions: Homo sapiens, NCI-H125; read-out: IC50
H596 (PIK3CA) = assay: cells; type: cell-based; conditions: Homo sapiens, NCI-H596; read-out: IC50
H209 = assay: 72 hr cytotoxicity: SCLC classic; type: cell-based; conditions: Homo sapiens, NCI-H209; read-out: IC50
H719 = assay: 72 hr cytotoxicity: SCLC classic; type: cell-based; conditions: Homo sapiens; H719; read-out: IC50
H358 KRAS = assay: cells; type: cell-based; conditions: Homo sapiens, NCI-H358; read-out: IC50
H249 = assay: 72 hr cytotoxicity: SCLC classic; type: cell-based; conditions: Homo sapiens; H249; read-out: IC50
H60 = assay: 72 hr cytotoxicity: SCLC classic; type: cell-based; conditions: Homo sapiens; H60; read-out: IC50
H526 = assay: 72 hr cytotoxicity: SCLC variant; type: cell-based; conditions: Homo sapiens, NCI-H526; read-out: IC50
H417 = assay: 72 hr cytotoxicity: SCLC variant; type: cell-based; conditions: Homo sapiens, NCI-H417; read-out: IC50
H520 (FGFR) = assay: cells; type: cell-based; conditions: Homo sapiens, NCI-H520; read-out: IC50
H187 = assay: 72 hr cytotoxicity: SCLC classic; type: cell-based; conditions: Homo sapiens, NCI-H187; read-out: IC50
H647 (KRAS) = assay: cells; type: cell-based; conditions: Homo sapiens, NCI-H647; read-out: IC50
H524 = assay: 72 hr cytotoxicity: SCLC variant; type: cell-based; conditions: Homo sapiens, NCI-H524; read-out: IC50
H82 = assay: 72 hr cytotoxicity: SCLC variant; type: cell-based; conditions: Homo sapiens, NCI-H82; read-out: IC50
H562 = assay: 72 hr cytotoxicity: SCLC classic; type: cell-based; conditions: Homo sapiens; H562; read-out: IC50
H322 = assay: cells; type: cell-based; conditions: Homo sapiens, NCI-H322; read-out: IC50
H69 = assay: 72 hr cytotoxicity: SCLC classic; type: cell-based; conditions: Homo sapiens, NCI-H69
MRC5 = assay: cells; type: cell-based; conditions: Homo sapiens, MRC5, 72 h
[5] = system: normal human, murine or primate cell and tissue types; assay: MTT / alamar blue cytotoxicity on panel of normal tissues; type: cell-based; conditions: read-out: IC50 range
[6] = system: Cord Blood CFC (CFU-GM, BFU-E, CFU-C); assay: cells; type: cell-based; conditions: Homo sapiens
16HBE SV40+ = assay: cells; type: cell-based; conditions: Homo sapiens, 72 h
[7] = system: MCL line JEKO-1 vs normal human tissues; type: cell-based
BMEC-hTert = assay: cells; type: cell-based; conditions: Homo sapiens, 72 h
BEAS2B SV40 = assay: cells; type: cell-based; conditions: Homo sapiens, BEAS-2B, 72 h

## CC(C)NCCCn1c(Sc2cc3c(cc2I)OCO3)nc2c(N)ncnc21 [PUH71]
Mino; 72 hrs alamar blue
  IC50: 0.263 µM
Mino; Mino, 72 hrs alamar blue
  interaction with BO-1055 (combo-1, combo-2): dually synergistic
FTE-hTERT; FTEC Fallopian tube epithelium, 72 hr, read-out: IC50
  IC50: 80 µM
HUVEC; HUVEC endothelium, 72 hr, read-out: IC50
  IC50: 0.35 µM
BMMSC; HuMSC bone marrow mesenchymal stem cells
  IC50: 0.63 µM
[1]
  interaction with BO-1055: exhibits synergism
REC-1; REC-1, 72 hrs alamar blue
  interaction with BO-1055 (combo-1, combo-2): antagonistic against REC-1 in both combinations
HBL2; HBL2, 72 hrs alamar blue
  IC50: 0.499 µM
BCI-NSI hTERT; Bci-NSI hTERT immortalized lung bronchus epithelium, 72 hr, read-out: IC50
  IC50: 1.5 µM
JEKO-1; JEKO-1, 72 hrs alamar blue
  IC50: 0.037 µM
[2]; CD34 (cord blood hematopoietic progenitors), 72 hr, read-out: IC50
  IC50: 0.05 µM
Granta; Granta, 72 hrs alamar blue
  interaction with BO-1055 (combo-1, combo-2): dually antagonistic
Granta; GRANTA, 72 hrs alamar blue
  IC50: 1.22 µM
Z-138; Z-138, 72 hrs alamar blue
  IC50: 0.162 µM
  interaction with BO-1055 (combo-1, combo-2): synergistic with BO-1055 in both combinations
NECB1; NECB1, 72 hrs alamar blue
  IC50: 1.66 µM
  interaction with BO-1055 (combo-1, combo-2): synergistic with BO-1055 against NECB1 in combo-1 and antagonistic in combo-2

## CC(C)C[C@H](NC(=O)[C@H](Cc1ccccc1)NC(=O)c1cnccn1)B(O)O [velcade, Bortezomib]
Mino
  interaction with BO-1055 (combo-1, combo-2): synergistic cytotoxic with both combinations
Mino; 72 h
  IC50: 0.04 µM
REC-1
  interaction with BO-1055 (combo-1, combo-2): antagonistic in both combinations
REC-1; Homo sapiens, Rec1, 72 h, read-out: IC50 single drug
  IC50: 0.008 µM
HBL2; HBL2, 72 h
  IC50: 0.005 µM
JEKO-1; JeKo-1, 72 h
  IC50: 0.015 µM
Granta
  interaction with BO-1055 (combo-1, combo-2): synergistic with combo-1 and antagonistic with combo-2
Granta; 72 h
  IC50: 0.008 µM
Z-138
  interaction with BO-1055 (combo-1, combo-2): synergistic cytotoxic with both combinations
Z-138; Z-138, 72 h
  IC50: 0.008 µM
NECB1
  interaction with BO-1055 (combo-1, combo-2): synergistic with combo-1 and antagonistic with combo-2
NECB1; 72 h
  IC50: 0.137 µM

## O=P1(N(CCCl)CCCl)NCCCO1 (stereo not shown) [cyclophosphamide]
[3]
  tumor response: Tumor growth was not inhibited

## Cn1nnc2c(C(N)=O)ncn2c1=O [Temozolomide]
IMR90; IMR-90, IMR90, 72 hr, read-out: IC50
  IC50: 57.3 µM
[4]
  IC50: 245 to 405 µM
JURKAT
  IC50: 2.07 µM
HUVEC; HUVEC, 72 hr, read-out: IC50
  IC50: 4.35 µM
MOLT-4
  IC50: 182 µM
BMMSC
  IC50: ≥ 45 µM
CHLA-9
  IC50: 294 µM
HS578; HS578, 72 hr, read-out: IC50
  IC50: > 100 µM
CCRF-CEM
  IC50: 424 µM
HL-60
  IC50: 49 µM
Kasumi-1 AML-ETO
  IC50: 389 µM
MS-5 (mouse); read-out: IC50
  IC50: 5.5 µM
BCI-NSI hTERT; BCI-NSI hTERT, 72 hr, read-out: IC50
  IC50: ≥ 40 µM
COG-LL-317
  IC50: 181 µM
RH30
  IC50: 9 µM
CCRF-CEM/Taxol
  IC50: 502 µM

## O=NN(CCCl)C(=O)NCCCl [BCNU, Carmustine]
H23
  IC50: ≥ 100 µM
H678
  IC50: ≥ 125 µM
H146
  IC50: ≥ 95 µM
H226
  IC50: ≥ 150 µM
H128
  IC50: ≥ 75 µM
H125
  IC50: ≥ 100 µM
H596 (PIK3CA)
  IC50: ≥ 225 µM
H209
  IC50: ≥ 35 µM
H719
  IC50: ≥ 100 µM
H358 KRAS
  IC50: ≥ 75 µM
H249
  IC50: ≥ 75 µM
H60
  IC50: 36 µM
H526
  IC50: ≥ 30 µM
H417
  IC50: ≥ 75 µM
H520 (FGFR)
  IC50: ≥ 120 µM
H187
  IC50: ≥ 35 µM
H647 (KRAS)
  IC50: ≥ 150 µM
H524
  IC50: ≥ 45 µM
H82
  IC50: ≥ 150 µM
H562
  IC50: ≥ 35 µM
H322
  IC50: ≥ 200 µM
H69
  IC50: 103 µM

## Cn1c(CCCC(=O)O)nc2cc(N(CCCl)CCCl)ccc21 [Bendamustine]
IMR90; IMR-90, 72 h
  IC50: 32.3 µM
FTE-hTERT; 72 h
  IC50: 400 µM
MRC5
  IC50: > 20 µM
[5]
  IC50: 20 to 400 µM
HUVEC; HUVEC, 72 h
  IC50: 140 µM
[6]
  IC50: 10 µM
HS578; Hs578, 72 h
  IC50: > 100 µM
16HBE SV40+
  IC50: 3.55 µM
MS-5 (mouse)
  IC50: 2.24 µM
BCI-NSI hTERT; 72 h
  IC50: 85 µM
[7]
  TW: 1.60-6.36 fold
BMEC-hTert
  IC50: 300 µM
BEAS2B SV40
  IC50: > 10 µM
[2]; 72 h
  IC50: 10 µM
